Values joined by “and” are separate entries in the source; they are usually repeats but may differ in a detail not shown here. Equal values may be shown once.
Experiments:
CqsS = target: T1, CqsS (Vibrio cholerae serotype O1, UniProt Q9KM66); assay: cell-based; settings: for Light production: strain WN1102; for EC50: light production, reporter strain WN1102, 4 h at 30 °C; for RLU: Strain WN1102
T1 construct: endogenous in cells; host or cells: V. cholerae WN1102 (ΔcqsA ΔluxQ/pBB1), derived from C6706str2
T1 sequence (Q9KM66 whole entry, looked up): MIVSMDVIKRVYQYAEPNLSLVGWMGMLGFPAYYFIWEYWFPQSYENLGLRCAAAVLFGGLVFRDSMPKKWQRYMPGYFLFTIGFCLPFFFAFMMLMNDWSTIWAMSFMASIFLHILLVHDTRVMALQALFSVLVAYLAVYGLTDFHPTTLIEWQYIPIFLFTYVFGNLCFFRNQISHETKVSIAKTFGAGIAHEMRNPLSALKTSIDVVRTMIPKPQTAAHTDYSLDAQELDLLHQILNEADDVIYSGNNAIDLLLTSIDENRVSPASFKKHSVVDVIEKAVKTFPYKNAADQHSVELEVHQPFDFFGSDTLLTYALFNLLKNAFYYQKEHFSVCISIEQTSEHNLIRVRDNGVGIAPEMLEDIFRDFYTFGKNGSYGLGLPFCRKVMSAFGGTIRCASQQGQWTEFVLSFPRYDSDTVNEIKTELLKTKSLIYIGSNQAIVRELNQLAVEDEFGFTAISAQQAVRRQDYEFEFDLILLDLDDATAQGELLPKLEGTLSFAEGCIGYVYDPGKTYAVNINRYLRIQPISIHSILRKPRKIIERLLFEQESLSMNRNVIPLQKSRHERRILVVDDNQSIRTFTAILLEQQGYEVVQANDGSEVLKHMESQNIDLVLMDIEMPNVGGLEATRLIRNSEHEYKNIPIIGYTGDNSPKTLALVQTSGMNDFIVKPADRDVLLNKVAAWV

qrr4 = assay type: cell-based; settings: LuxS-CqsA- strain + autoinducer; Rep 1-3

Structure (SMILES): CCCn1nnnc1NCc1ccc(N(CC)CC)cc1 [#2]
- Light production (CqsS; Agonist 0.0119209 nM): 10481 RLU and 11875 RLU and 20274 RLU
- Light production (CqsS; Agonist 0.0476837 nM): 11765 RLU and 13923 RLU and 13822 RLU
- Light production (CqsS; Agonist 0.190735 nM): 21584 RLU and 21176 RLU and 18763 RLU
- Light production (CqsS; Agonist 0.762939 nM): 32000 RLU and 26047 RLU and 22456 RLU
- Light production (CqsS; Agonist 3.05176 nM): 51860 RLU and 50633 RLU and 45087 RLU
- Light production (CqsS; Agonist 12.207 nM): 312292 RLU and 263721 RLU and 253642 RLU
- Light production (CqsS; Agonist 48.8281 nM): 5147778 RLU and 5005576 RLU and 4962410 RLU
- Light production (CqsS; Agonist 195.312 nM): 29151080 RLU and 28675780 RLU and 30844170 RLU
- Light production (CqsS; Agonist 781.25 nM): 78218700 RLU and 84853010 RLU and 92706410 RLU
- Light production (CqsS; Agonist 3125 nM): 94808130 RLU and 116685800 RLU and 113209800 RLU
- Light production (CqsS; Agonist 12500 nM): 93694120 RLU and 114540600 RLU and 119989100 RLU
- Light production (CqsS; Agonist 50000 nM): 88291390 RLU and 103481200 RLU and 109394800 RLU
- EC50 (CqsS): 26 nM

Structure (SMILES): CCCn1nnnc1NCc1ccc(N2CCCC2)cc1 [#3]
- Light production (CqsS; Agonist 0.0476837 nM): 13269 RLU and 14460 RLU and 11456 RLU
- Light production (CqsS; Agonist 0.190735 nM): 18051 RLU and 20632 RLU and 16089 RLU
- Light production (CqsS; Agonist 0.762939 nM): 27556 RLU and 29263 RLU and 25287 RLU
- Light production (CqsS; Agonist 3.05176 nM): 53410 RLU and 57320 RLU and 53409 RLU
- Light production (CqsS; Agonist 12.207 nM): 598613 RLU and 571778 RLU and 545574 RLU
- Light production (CqsS; Agonist 48.8281 nM): 17729790 RLU and 16188200 RLU and 18180520 RLU
- Light production (CqsS; Agonist 195.312 nM): 52331460 RLU and 53359300 RLU and 52422750 RLU
- Light production (CqsS; Agonist 781.25 nM): 72153380 RLU and 70458940 RLU and 74315090 RLU
- Light production (CqsS; Agonist 3125 nM): 80807740 RLU and 76653980 RLU and 72594050 RLU
- Light production (CqsS; Agonist 12500 nM): 69868890 RLU and 66115120 RLU and 65607710 RLU
- Light production (CqsS; Agonist 50000 nM): 41204600 RLU and 38225840 RLU and 37314420 RLU
- fold less potent than compound #1 (CqsS; EC50 comparison): approximately 4 fold
- EC50 (CqsS): 14 nM

Structure (SMILES): CCCn1nnnc1NCc1ccc(C(C)C)cc1 [#4]
- Light production (CqsS; Agonist 0.0119209 nM): 12293 RLU and 13200 RLU and 7500 RLU
- Light production (CqsS; Agonist 0.0476837 nM): 18202 RLU and 15106 RLU and 14409 RLU
- Light production (CqsS; Agonist 0.190735 nM): 28023 RLU and 25417 RLU and 23860 RLU
- Light production (CqsS; Agonist 0.762939 nM): 52174 RLU and 73300 RLU and 48409 RLU
- Light production (CqsS; Agonist 3.05176 nM): 246211 RLU and 267975 RLU and 261469 RLU
- Light production (CqsS; Agonist 12.207 nM): 3790123 RLU and 3428043 RLU and 3340791 RLU
- Light production (CqsS; Agonist 48.8281 nM): 19838010 RLU and 18010170 RLU and 17447160 RLU
- Light production (CqsS; Agonist 195.312 nM): 61742000 RLU and 56850120 RLU and 54681960 RLU
- Light production (CqsS; Agonist 781.25 nM): 104719700 RLU and 101045100 RLU and 95346500 RLU
- Light production (CqsS; Agonist 3125 nM): 119868200 RLU and 118607300 RLU and 107846700 RLU
- Light production (CqsS; Agonist 12500 nM): 122328400 RLU and 118368100 RLU and 108047500 RLU
- Light production (CqsS; Agonist 50000 nM): 103497500 RLU and 101746000 RLU and 97356600 RLU
- EC50 (CqsS): 7 nM

Structure (SMILES): CCn1nnnc1NCc1ccc(C(C)C)cc1 [#5]
- Light production (CqsS; Agonist 0.0119209 nM): 22342 RLU and 16526 RLU and 20189 RLU
- Light production (CqsS; Agonist 0.0476837 nM): 18351 RLU and 14922 RLU and 16393 RLU
- Light production (CqsS; Agonist 0.190735 nM): 24222 RLU and 32473 RLU and 30802 RLU
- Light production (CqsS; Agonist 0.762939 nM): 43006 RLU and 46460 RLU and 51236 RLU
- Light production (CqsS; Agonist 3.05176 nM): 215673 RLU and 187636 RLU and 197250 RLU
- Light production (CqsS; Agonist 12.207 nM): 3692444 RLU and 3488605 RLU and 3831864 RLU
- Light production (CqsS; Agonist 48.8281 nM): 25448660 RLU and 29298250 RLU and 27925710 RLU
- Light production (CqsS; Agonist 195.312 nM): 71515280 RLU and 80802780 RLU and 79358510 RLU
- Light production (CqsS; Agonist 781.25 nM): 95077870 RLU and 111974800 RLU and 120784000 RLU
- Light production (CqsS; Agonist 3125 nM): 107051300 RLU and 126535100 RLU and 129294500 RLU
- Light production (CqsS; Agonist 12500 nM): 98996430 RLU and 113608500 RLU and 123733600 RLU
- Light production (CqsS; Agonist 50000 nM): 91459320 RLU and 107555000 RLU and 106482900 RLU
- EC50 (CqsS): 8 nM

Structure (SMILES): c1cc(N2CCCC2)ccc1CNc1nnn[nH]1 [#6]
- CqsS agonist activity (CqsS; S10 Fig): loses all activity
- RLU (CqsS; agonist 0.762939 nM): 2.15E+03 RLU and 2.08E+03 RLU and 4.10E+03 RLU
- RLU (CqsS; agonist 12.207 nM): 2.13E+03 RLU and 2.35E+03 RLU and 4.10E+03 RLU
- RLU (CqsS; agonist 48.8281 nM): 2.14E+03 RLU and 2.26E+03 RLU and 4.12E+03 RLU
- RLU (CqsS; agonist 195.312 nM): 6.45E+03 RLU and 4.19E+03 RLU and 4.17E+03 RLU
- RLU (CqsS; agonist 50000 nM): 6.42E+03 RLU and 4.10E+03 RLU and 6.49E+03 RLU

Structure (SMILES): CCC(C)NC(=O)Cc1ccc(-c2ccccc2)cc1 (centres unmarked) [#7]
- Light production (CqsS; Agonist 0.0119209 nM): 14566 RLU and 10667 RLU and 7878.8 RLU
- Light production (CqsS; Agonist 0.0476837 nM): 16089 RLU and 13267 RLU and 10570 RLU
- Light production (CqsS; Agonist 0.190735 nM): 18864 RLU and 15385 RLU and 12553 RLU
- Light production (CqsS; Agonist 0.762939 nM): 24094 RLU and 21702 RLU and 17241 RLU
- Light production (CqsS; Agonist 3.05176 nM): 32638 RLU and 25814 RLU and 24906 RLU
- Light production (CqsS; Agonist 12.207 nM): 48047 RLU and 41582 RLU and 31818 RLU
- Light production (CqsS; Agonist 48.8281 nM): 81242 RLU and 67619 RLU and 51844 RLU
- Light production (CqsS; Agonist 195.312 nM): 183313 RLU and 159529 RLU and 160500 RLU
- Light production (CqsS; Agonist 781.25 nM): 10770860 RLU and 8237516 RLU and 9173585 RLU
- Light production (CqsS; Agonist 3125 nM): 90855490 RLU and 84011930 RLU and 82291170 RLU
- Light production (CqsS; Agonist 12500 nM): 122744100 RLU and 104793600 RLU and 103467300 RLU
- Light production (CqsS; Agonist 50000 nM): 104239700 RLU and 95731630 RLU and 92148540 RLU
- EC50 (CqsS): 403 nM

Structure (SMILES): O=C(Cc1ccc(-c2ccccc2)cc1)NC1CCC1 [#8]
- Light production (CqsS; Agonist 0.0119209 nM): 17900 RLU and 10791 RLU and 14350 RLU
- Light production (CqsS; Agonist 0.0476837 nM): 11100 RLU and 15000 RLU and 11881 RLU
- Light production (CqsS; Agonist 0.190735 nM): 26990 RLU and 16080 RLU and 18824 RLU
- Light production (CqsS; Agonist 0.762939 nM): 24950 RLU and 23905 RLU
- Light production (CqsS; Agonist 3.05176 nM): 48627 RLU and 40000 RLU and 32706 RLU
- Light production (CqsS; Agonist 12.207 nM): 75176 RLU and 69890 RLU and 67191 RLU
- Light production (CqsS; Agonist 48.8281 nM): 1115870 RLU and 738497 RLU and 676886 RLU
- Light production (CqsS; Agonist 195.312 nM): 40840900 RLU and 39570670 RLU and 37676260 RLU
- Light production (CqsS; Agonist 781.25 nM): 91907700 RLU and 100480500 RLU and 102019900 RLU
- Light production (CqsS; Agonist 3125 nM): 92588910 RLU and 118830300 RLU and 113054700 RLU
- Light production (CqsS; Agonist 12500 nM): 89613410 RLU and 99998040 RLU and 103728600 RLU
- Light production (CqsS; Agonist 50000 nM): 78185000 RLU and 81850050 RLU and 75936470 RLU
- EC50 (CqsS): 53 nM

Structure (SMILES): O=C(Cc1ccc(-c2ccccn2)cc1)NC1CCCC1 [#9]
- Light production (CqsS; Agonist 0.0119209 nM): 8704.7 RLU and 9014.1 RLU and 7722.8 RLU
- Light production (CqsS; Agonist 0.0476837 nM): 11317 RLU and 7830.7 RLU and 9751.2 RLU
- Light production (CqsS; Agonist 0.190735 nM): 10595 RLU and 11217 RLU and 6363.6 RLU
- Light production (CqsS; Agonist 0.762939 nM): 13636 RLU and 11364 RLU and 8044.7 RLU
- Light production (CqsS; Agonist 3.05176 nM): 16879 RLU and 13647 RLU and 11676 RLU
- Light production (CqsS; Agonist 12.207 nM): 22994 RLU and 16264 RLU and 15148 RLU
- Light production (CqsS; Agonist 48.8281 nM): 32335 RLU and 27200 RLU and 23011 RLU
- Light production (CqsS; Agonist 195.312 nM): 55190 RLU and 44311 RLU and 39030 RLU
- Light production (CqsS; Agonist 781.25 nM): 108075 RLU and 97949 RLU and 93072 RLU
- Light production (CqsS; Agonist 3125 nM): 7362143 RLU and 7832704 RLU and 8085455 RLU
- Light production (CqsS; Agonist 12500 nM): 55377500 RLU and 53818320 RLU and 53583010 RLU
- Light production (CqsS; Agonist 50000 nM): 93123590 RLU and 90629940 RLU and 93211830 RLU
- EC50 (CqsS): 1720 nM

Structure (SMILES): CCCCCCCCCC(=O)[C@@H](O)CC [CAI]
- RLU, average per biological replicate (Totals) (qrr4): 2.55E+08 RLU and 2.82E+08 RLU and 3.63E+08 RLU

Source: article PMC5467912, “Asymmetric regulation of quorum-sensing receptors drives autoinducer-specific gene expression programs in Vibrio cholerae” (PLoS Genetics, 2017)
